Test results reported in patent publication US5767236A, “Linear therapeutic peptides” (Biomeasure, Inc., priority 1995, dated 1998).
Non-standard residues stand in square brackets, D forms with d. Residues, ends and D or L forms follow the SMILES beside them. *: point of attachment. Propionyl = CCC(=O)*

Tests used:
[1] = system: NCI-H345 human small cell lung cancer (SCLC); assay: Subcutaneous tumor assay, NCI-H345 lung tumor; type: in vivo; conditions: FIG. 1
Protocol: (§1) Treatment of tumors induced by subcutaneous implantation of in vitro maintained cell cultures was initiated only when well established as progressively growing tumors in the first transplant generation from in vitro culture. "No takes" were culled and animals with tumors of similar size were carefully randomized into control and test groups.
(§2) Analogues were tested against all tumor systems except SCLC's and NSCLC's at a screening dose of 100 μg/injection, s.c., in the flank opposite from the tumor, b.i.d. Lung tumors (SCLC and NSCLC) were tested at 250 μg/injection, s.c., b.i.d. Rat breast tumors were tested at 400 Ag/injection, s.c., b.i.d., an equivalent extrapolation from the mouse dose.
(§3) In vivo transplantation established tumor systems were implanted s.c. as a 1-2 mm^3 mince of tumor tissue. Treatment was initiated within 2 to 3 days of implantation.
(§4) Tumor weights (mgs) from tumor dimensions (mm×mm) were calculated following the formula of a prolate ellipsoid: […]
(§5) L×W^2 /2, where L is the longer of the two measurements.
(§6) Tumor measurements were determined with a vernier caliper three times/week.
An in vitro maintained human small cell lung cancer
(SCLC) graciously prided by Dr. A. Gazdar. Cell
agglomerates produce slow, progressively growing tumors
in approximately 80% of athymic nude mice
when implanted subcutaneously. Tested as
well established subcutaneous
xenografts in athymic nudes.

[2] = biological target: T1, GRP receptor (Rattus norvegicus, UniProt P52500); assay: Assay on binding to GRP receptor ([125I-Tyr4]bombesin displacement, AR42J cell membranes); conditions: for IC50: rat AR42J cell membranes, [125I-Tyr4]bombesin, 30 min, 4° C., read-out: IC50, affinity binding for the GRP receptors; for increase in the affinity for the GRP receptor compared with litorin or Leu-litorin: ratio of IC50 values versus litorin / Leu-litorin
T1 construct: endogenous in cells; host or cells: rat AR42J pancreatic acinar cells (membrane preparation)
T1 sequence (P52500 whole entry): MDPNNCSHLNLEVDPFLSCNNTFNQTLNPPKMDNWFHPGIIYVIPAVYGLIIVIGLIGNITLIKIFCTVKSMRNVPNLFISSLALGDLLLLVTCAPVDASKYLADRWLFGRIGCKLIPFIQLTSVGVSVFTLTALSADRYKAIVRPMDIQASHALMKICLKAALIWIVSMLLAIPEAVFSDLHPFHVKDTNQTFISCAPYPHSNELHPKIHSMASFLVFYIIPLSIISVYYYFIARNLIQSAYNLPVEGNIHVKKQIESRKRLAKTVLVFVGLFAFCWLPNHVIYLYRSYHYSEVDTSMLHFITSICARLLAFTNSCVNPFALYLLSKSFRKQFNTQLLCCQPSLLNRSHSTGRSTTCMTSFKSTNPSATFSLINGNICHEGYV
Protocol: Rat AR42J pancreatic acinar cells were cultured in Dulbecco's modified Eagle's medium without antibiotics and supplemented with 10% (vol/vol) fetal calf serum. The incubation atmosphere consisted of 10% C)2 -90% humidified air at 37° C.
Membranes for the bombesin receptor binding assay were obtained by homogenizing AR42J cells (Polytron, setting 6, 15 sec) in ice-cold 50 mM Tris-HCl (Buffer A) and centrifuging twice at 39,000× g (10 min), with an intermediate resuspension in fresh buffer. The final pellets were resuspended in 50 mM Tris-HCl, containing 0.1 mg/ml bacitracin, and 0.1% BSA (Buffer B), and held on ice for the receptor binding assay.
For assay, aliquots (0.4 ml) were incubated with 0.05 ml [^125 I-Tyr^4 ] bombesin (~2200 Ci/mmol, New England Nuclear) and Buffer B, with and without 0.05 ml of unlabeled competing analogs. After a 30 min incubation (4° C.), the bound [^125 I-Tyr^4 ] bombesin was separated from the free by rapid filtration through GF/B filters which had been previously soaked in 0.1% polyethyleneimine. The filters were then washed three times with 5 ml aliquots of ice-cold Buffer A. Specific binding was defined as the total [^125 I-Tyr^4 ] bombesin bound minus that bound in the presence of 1 μM unlabeled bombesin.

[3] = system: CX-5 colon tumor; assay: Subcutaneous tumor assay, CX-5 colon tumor; type: in vivo, human; conditions: 100 μg/injection, s.c., b.i.d.
Protocol: as §1, §2, §3, §4, §5, §6
GOB-G Moderately differentiated adenocarcinoma, human, tested
as xenografts in athymic nude females.

[4] = system: different human and animal tumors; assay: Assay on inhibition of tumor growth, overall statement; type: in vivo; conditions: summary of Table 3; inhibitory activity when Percent Test/Control < 80% T/C
Protocol: as §1, §2, §3, §4, §5, §6

[5] = system: M5123 hepatoma; assay: Subcutaneous tumor assay, M5123 hepatoma; type: in vivo, rat; conditions: 100 μg/injection, s.c., b.i.d.
Protocol: as §1, §2, §3, §4, §5, §6

[6] = system: M7777 hepatoma; assay: Subcutaneous tumor assay, M7777 hepatoma; type: in vivo, rat; conditions: 100 μg/injection, s.c., b.i.d.
Protocol: as §1, §2, §3, §4, §5, §6

CCCC[C@H](NC(=O)[C@H](Cc1ccccc1)NC(=O)[C@H](Cc1c[nH]cn1)NC(=O)CNC(=O)[C@@H](NC(=O)[C@H](C)NC(=O)[C@H](Cc1c[nH]c2ccccc12)NC(=O)[C@H](CCC(N)=O)NC(=O)[C@H](N)Cc1ccccc1)C(C)C)C(N)=O [BIM-26224, H-D-Phe-Gln-Trp-Ala-Val-Gly-His-Phe-Nle-NH2]
growth inhibitory effect on small cell lung carcinoma (SCLC) [1]: capable of inhibiting
IC50 [2]: 0.7 nM

CC(C)C[C@H](NC(=O)[C@H](CC(C)C)NC(=O)[C@H](Cc1c[nH]cn1)NC(=O)CNC(=O)[C@@H](NC(=O)[C@H](C)NC(=O)[C@H](Cc1c[nH]c2ccccc12)NC(=O)[C@H](CCC(N)=O)NC(=O)[C@H](N)Cc1ccc(O)cc1)C(C)C)C(N)=O [BIM-26278, H--D-Tyr--Gln--Trp--Ala--Val--Gly--His--Leu--Leu--NH2]
IC50 [2]: 1.5 nM
increase in the affinity for the GRP receptor compared with litorin or Leu-litorin [2]: 5- to 15 times

CCCC[C@H](NC(=O)[C@H](Cc1ccccc1)NC(=O)[C@H](Cc1c[nH]cn1)NC(=O)CNC(=O)[C@@H](NC(=O)[C@H](C)NC(=O)[C@H](Cc1c[nH]c2ccccc12)NC(=O)[C@H](CCC(N)=O)NC(=O)[C@H](N)Cc1ccc(O)cc1)C(C)C)C(N)=O [BIM-26270, H--D-Tyr--Gln--Trp--Ala--Val--Gly--His--Phe--Nle--NH2]
IC50 [2]: 0.1 nM
increase in the affinity for the GRP receptor compared with litorin or Leu-litorin [2]: 24 to 230 times

CC(C)C[C@H](NC(=O)[C@H](Cc1ccccc1)NC(=O)[C@H](Cc1c[nH]cn1)NC(=O)CNC(=O)[C@@H](NC(=O)[C@H](C)NC(=O)[C@H](Cc1c[nH]c2ccccc12)NC(=O)[C@H](CCC(N)=O)NC(=O)[C@H](N)Cc1ccc(O)cc1)C(C)C)C(N)=O [BIM-26288, H--D-Tyr--Gln--Trp--Ala--Val--Gly--His--Phe--Leu--NH2]
IC50 [2]: 0.7 nM

CSCC[C@H](NC(=O)[C@H](CC(C)C)NC(=O)[C@H](Cc1c[nH]cn1)NC(=O)CNC(=O)[C@@H](NC(=O)[C@H](C)NC(=O)[C@H](Cc1c[nH]c2ccccc12)NC(=O)[C@H](CCC(N)=O)NC(=O)[C@H](N)Cc1ccc(O)cc1)C(C)C)C(N)=O [BIM-26274, H--D-Tyr--Gln--Trp--Ala--Val--Gly--His--Leu--Met--NH2]
IC50 [2]: 0.3 nM

CCC(=O)N[C@@H](Cc1c[nH]cn1)C(=O)N[C@@H](Cc1c[nH]c2ccccc12)C(=O)N[C@@H](C)C(=O)N[C@H](C(=O)N[C@H](C)C(=O)N[C@@H](Cc1c[nH]cn1)C(=O)N[C@@H](CC(C)C)C(=O)N[C@@H](CC(C)C)C(N)=O)C(C)C [BIM-26247, Propionyl-His-Trp-Ala-Val-D-Ala-His-Leu-Leu-NH2] (Propionyl-HWAV[dA]HLL-NH2)
Percent Test/Control (tumor weight) [3]: 54%
inhibition of the growth of different human and animal tumors [4]: capable of inhibiting the growth

CSCC[C@H](NC(=O)[C@H](CC(C)C)NC(=O)[C@H](Cc1c[nH]cn1)NC(=O)CNC(=O)[C@@H](NC(=O)[C@H](C)NC(=O)[C@H](Cc1c[nH]c2ccccc12)NC(=O)[C@H](CCC(N)=O)NC(=O)[C@H](N)Cc1ccccc1)C(C)C)C(N)=O [BIM-26218, H-D-Phe-Gln-Trp-Ala-Val-Gly-His-Leu-Met-NH2]
Percent Test/Control (tumor weight) [5]: 70%
inhibition of the growth of different human and animal tumors [4]: capable of inhibiting the growth

CCCC[C@H](NC(=O)[C@H](CC(C)C)NC(=O)[C@H](Cc1c[nH]cn1)NC(=O)CNC(=O)[C@@H](NC(=O)[C@H](C)NC(=O)[C@H](Cc1c[nH]c2ccccc12)NC(=O)[C@H](CCC(N)=O)NC(=O)[C@H](N)Cc1ccc(O)cc1)C(C)C)C(N)=O [BIM-26279, H--D-Tyr--Gln--Trp--Ala--Val--Gly--His--Leu--Nle--NH2]
IC50 [2]: 1.7 nM

CSCC[C@H](NC(=O)[C@H](Cc1ccccc1)NC(=O)[C@H](Cc1c[nH]cn1)NC(=O)CNC(=O)[C@@H](NC(=O)[C@H](C)NC(=O)[C@H](Cc1c[nH]c2ccccc12)NC(=O)[C@H](CCC(N)=O)NC(=O)[C@H](N)Cc1ccccc1)C(C)C)C(N)=O [BIM-26269, H--D-Phe--Gln--Trp--Ala--Val--Gly--His--Phe--Met--NH2]
IC50 [2]: 1.4 nM

CC(=O)N[C@@H](Cc1c[nH]cn1)C(=O)N[C@@H](Cc1c[nH]c2ccccc12)C(=O)N[C@@H](C)C(=O)N[C@H](C(=O)NCC(=O)N[C@@H](Cc1c[nH]cn1)C(=O)N[C@@H](CC(C)C)C(=O)N[C@@H](CC(C)C)C(N)=O)C(C)C [BIM-26225, Acetyl-His-Trp-Ala-Val-Gly-His-Leu-Leu-NH2] (Ac-HWAVGHLL-NH2)
inhibition of the growth of different human and animal tumors [4]: capable of inhibiting the growth
Percent Test/Control (tumor weight) [6]: 52%

CSCC[C@H](NC(=O)[C@H](Cc1ccccc1)NC(=O)[C@H](Cc1c[nH]cn1)NC(=O)CNC(=O)[C@@H](NC(=O)[C@H](C)NC(=O)[C@H](Cc1c[nH]c2ccccc12)NC(=O)[C@H](CCC(N)=O)NC(=O)[C@H](N)Cc1ccc(O)cc1)C(C)C)C(N)=O [BIM-26271, H--D-Tyr--Gln--Trp--Ala--Val--Gly--His--Phe--Met--NH2]
IC50 [2]: 0.5 nM
increase in the affinity for the GRP receptor compared with litorin or Leu-litorin [2]: 5- to 15 times
